Test results taken from patent publication US9238656B2, “Imidazo[4,5-b]pyridine derivatives as ALK and JAK modulators for the treatment of proliferative disorders” (priority 2012, dated 2016).
Several values for one entry are separate records, joined by “and”; a condition that tells them apart may be missing. Identical values can stand only once. Counter-ions that a name gives are not always drawn.

What was measured:
[1] = target: baculovirus-expressed ALK (Homo sapiens, UniProt Q9UM73); experiment: ALK kinase inhibition, TRF/ELISA; assay type: biochemical; conditions: read-out: ALK Potency
Experimental: Briefly, each 96-well plate was coated with 100 μL/well of 10 μg/mL substrate (GST-PLC-γ) in Tris-buffered saline (TBS). […] The reaction was initiated by adding enzyme (30 ng/mL ALK) and was allowed to proceed at 37° C. for 15 minutes. Detection of the phosphorylated product was performed by adding 100 μL/well of Eu-N1 labeled PT66 antibody (Perkin Elmer #AD0041). […] Data analysis was performed using ActivityBase (IDBS, Guilford, UK). IC50 values were calculated by plotting percent inhibition versus log10 of the concentration of compound and fitting to the nonlinear regression sigmoidal dose-response (variable slope) equation in XLFit (IDBS, Guilford, UK).

[2] = target: baculovirus-expressed JAK2 kinase (Homo sapiens, UniProt O60674); experiment: biochemical; conditions: 0.2 μM ATP; read-out: JAK2 Potency
Experimental: Compounds were tested for their ability to inhibit the kinase activity of baculovirus-expressed JAK2 kinase using the time-resolved fluorescence (TRF) detection system. […] The plates were coated with 100 μL/well of 10 μg/mL Neutravidin (Pierce #31000, Rockford, Ill.) in TBS at 37° C. for 2 h, followed by 100 μL/well of 1 μg/mL 15-mer peptide substrate (biotinyl-amino-hexanoyl-[…]-amide, Infinity Biotech Research and Resource, Aston, Pa.) at 37° C. for 1 h. […] Enzyme (15 ng/mL JAK2) was added and the reaction was allowed to proceed at room temperature for 20 min. […] Inhibition data were analyzed using ActivityBase (IDBS, Guilford, UK). IC50 values were calculated by plotting percent inhibition versus log10 of the concentration of compound and fitting to the nonlinear regression sigmoidal dose-response (variable slope) equation in XLFit (IDBS, Guilford, UK).

Chain of baculovirus-expressed ALK (Q9UM73 19-1620): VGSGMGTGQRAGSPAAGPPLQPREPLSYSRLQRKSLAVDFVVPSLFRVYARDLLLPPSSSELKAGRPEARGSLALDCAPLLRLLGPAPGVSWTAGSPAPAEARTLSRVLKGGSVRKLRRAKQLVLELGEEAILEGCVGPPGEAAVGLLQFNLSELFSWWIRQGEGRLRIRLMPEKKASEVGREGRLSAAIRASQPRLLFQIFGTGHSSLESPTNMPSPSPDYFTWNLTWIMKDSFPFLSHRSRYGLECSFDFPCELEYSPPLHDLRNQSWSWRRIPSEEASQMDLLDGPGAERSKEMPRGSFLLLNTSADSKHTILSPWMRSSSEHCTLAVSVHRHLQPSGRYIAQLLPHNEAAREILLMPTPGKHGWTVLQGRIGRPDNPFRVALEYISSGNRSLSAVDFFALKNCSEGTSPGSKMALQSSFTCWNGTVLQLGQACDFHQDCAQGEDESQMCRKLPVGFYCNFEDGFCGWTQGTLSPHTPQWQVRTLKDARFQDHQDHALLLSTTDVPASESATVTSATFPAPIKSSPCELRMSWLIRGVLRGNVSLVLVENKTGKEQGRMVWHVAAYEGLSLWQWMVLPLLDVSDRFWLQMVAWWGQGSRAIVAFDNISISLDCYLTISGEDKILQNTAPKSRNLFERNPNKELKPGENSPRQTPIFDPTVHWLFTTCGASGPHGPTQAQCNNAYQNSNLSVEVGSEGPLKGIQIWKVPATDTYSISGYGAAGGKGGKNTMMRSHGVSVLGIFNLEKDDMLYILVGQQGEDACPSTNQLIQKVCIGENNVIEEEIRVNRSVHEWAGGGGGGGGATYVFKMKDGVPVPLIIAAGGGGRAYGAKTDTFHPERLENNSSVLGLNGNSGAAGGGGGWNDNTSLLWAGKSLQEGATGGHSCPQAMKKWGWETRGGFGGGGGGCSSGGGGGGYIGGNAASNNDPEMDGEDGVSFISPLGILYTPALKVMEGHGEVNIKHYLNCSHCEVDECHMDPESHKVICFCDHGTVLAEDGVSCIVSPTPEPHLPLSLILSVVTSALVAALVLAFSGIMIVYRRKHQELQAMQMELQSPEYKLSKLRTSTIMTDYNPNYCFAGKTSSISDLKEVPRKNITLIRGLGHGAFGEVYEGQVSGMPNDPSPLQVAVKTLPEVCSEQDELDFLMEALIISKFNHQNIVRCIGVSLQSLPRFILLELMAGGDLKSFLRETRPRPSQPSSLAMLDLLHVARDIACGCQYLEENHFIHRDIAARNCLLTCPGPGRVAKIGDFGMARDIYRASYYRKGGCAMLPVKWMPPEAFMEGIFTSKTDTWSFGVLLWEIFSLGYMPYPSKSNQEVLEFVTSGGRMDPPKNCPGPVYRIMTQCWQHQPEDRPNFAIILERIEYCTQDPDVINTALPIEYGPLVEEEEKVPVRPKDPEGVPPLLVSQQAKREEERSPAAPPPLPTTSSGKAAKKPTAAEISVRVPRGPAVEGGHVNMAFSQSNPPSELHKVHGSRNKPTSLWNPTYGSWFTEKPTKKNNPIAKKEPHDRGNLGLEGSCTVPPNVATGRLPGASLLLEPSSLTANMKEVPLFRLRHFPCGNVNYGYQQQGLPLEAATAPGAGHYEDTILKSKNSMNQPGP
Chain of baculovirus-expressed JAK2 kinase (O60674 whole entry): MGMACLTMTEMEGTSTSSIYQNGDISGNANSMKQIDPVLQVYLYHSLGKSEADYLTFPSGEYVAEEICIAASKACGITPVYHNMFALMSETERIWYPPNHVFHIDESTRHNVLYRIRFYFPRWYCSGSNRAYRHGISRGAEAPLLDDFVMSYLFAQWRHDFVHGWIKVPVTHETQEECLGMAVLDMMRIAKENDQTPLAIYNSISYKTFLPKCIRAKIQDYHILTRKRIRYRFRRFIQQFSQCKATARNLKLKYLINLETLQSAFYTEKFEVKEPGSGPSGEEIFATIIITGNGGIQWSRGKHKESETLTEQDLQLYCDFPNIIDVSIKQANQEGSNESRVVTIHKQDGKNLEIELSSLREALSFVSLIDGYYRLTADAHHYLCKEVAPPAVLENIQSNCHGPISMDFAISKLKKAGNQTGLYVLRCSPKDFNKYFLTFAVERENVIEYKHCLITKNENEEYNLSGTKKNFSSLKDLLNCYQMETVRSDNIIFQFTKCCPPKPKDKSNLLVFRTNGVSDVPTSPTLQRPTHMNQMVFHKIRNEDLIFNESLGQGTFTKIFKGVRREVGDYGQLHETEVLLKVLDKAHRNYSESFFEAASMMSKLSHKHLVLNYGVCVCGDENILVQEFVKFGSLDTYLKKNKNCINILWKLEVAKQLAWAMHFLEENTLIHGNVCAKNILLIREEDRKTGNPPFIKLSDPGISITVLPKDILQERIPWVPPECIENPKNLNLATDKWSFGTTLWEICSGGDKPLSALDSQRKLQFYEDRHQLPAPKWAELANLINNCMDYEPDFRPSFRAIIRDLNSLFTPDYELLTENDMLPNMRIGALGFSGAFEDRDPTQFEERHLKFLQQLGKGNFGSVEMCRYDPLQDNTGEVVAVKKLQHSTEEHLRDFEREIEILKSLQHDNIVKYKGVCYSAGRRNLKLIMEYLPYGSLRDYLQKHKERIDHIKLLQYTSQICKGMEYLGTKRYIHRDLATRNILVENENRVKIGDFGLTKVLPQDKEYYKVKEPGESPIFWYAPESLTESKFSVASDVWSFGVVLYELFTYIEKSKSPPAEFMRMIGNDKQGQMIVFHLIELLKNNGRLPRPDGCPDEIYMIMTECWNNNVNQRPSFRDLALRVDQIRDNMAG

SMILES | IC50 [1] [nM] | IC50 [2]
Cc1nn(C)c(C)c1-c1nc2c(N[C@H]3[C@@H](C(N)=O)[C@@H]4C=C[C@H]3C4)c(Cl)cnc2[nH]1 [Compound CLI, (1S,2S,3R,4R)-3-[6-Chloro-2-(1,3,5-trimethyl-1H-pyrazol-4-yl)-3H-imidazo[4,5-b]pyridin-7-ylamino]-bicyclo[2.2.1]hept-5-ene-2-carboxylic acid amide] | < 100 | < 100 nM
COc1ncc(-c2nc3c(N[C@H]4[C@@H](C(N)=O)[C@@H]5C=C[C@H]4C5)c(Cl)cnc3[nH]2)s1 [Compound CCIX, (1S,2S,3R,4R)-3-(6-chloro-2-(2-methoxythiazol-5-yl)-3H-imidazo[4,5-b]pyridin-7-ylamino)bicyclo[2.2.1]hept-5-ene-2-carboxamide] | 100 to 1000 | < 100 nM
NC(=O)[C@@H]1[C@H](Nc2c(Cl)cnc3[nH]c(-c4cnc(N5CCOCC5)s4)nc23)[C@H]2C=C[C@@H]1C2 [Compound CCX, (1S,2S,3R,4R)-3-(6-chloro-2-(2-morpholinothiazol-5-yl)-3H-imidazo[4,5-b]pyridin-7-ylamino)bicyclo[2.2.1]hept-5-ene-2-carboxamide] | < 100 | < 100 nM
CN1CCC(Oc2ccc(-c3nc4c(N[C@H]5[C@@H](C(N)=O)[C@@H]6C=C[C@H]5C6)c(Cl)cnc4[nH]3)cc2)CC1 [Compound CCXLV, (1S,2S,3R,4R)-3-(6-chloro-2-(4-(1-methylpiperidin-4-yloxy)phenyl)-3H-imidazo[4,5-b]pyridin-7-ylamino)bicyclo[2.2.1]hept-5-ene-2-carboxamide] | < 100 | < 100 nM
Cc1ncc(-c2nc3c(N[C@H]4[C@@H](C(N)=O)[C@@H]5C=C[C@H]4C5)c(Cl)cnc3[nH]2)s1 [Compound CCVIII, (1S,2S,3R,4R)-3-(6-chloro-2-(2-methylthiazol-5-yl)-3H-imidazo[4,5-b]pyridin-7-ylamino)bicyclo[2.2.1]hept-5-ene-2-carboxamide] | 100 to 1000 | < 100 nM
NC(=O)[C@@H]1[C@H](Nc2c(Cl)cnc3[nH]c(-c4cccc(C(=O)NCC(=O)O)c4)nc23)[C@H]2C=C[C@@H]1C2 [Compound CCXXVII, 2-(3-(7-((1R,2R,3S,4S)-3-carbamoylbicyclo[2.2.1]hept-5-en-2-ylamino)-6-chloro-3H-imidazo[4,5-b]213yridine-2-yl)benzamido)acetic acid] | 1000 to 10000 | < 100 nM
NC(=O)[C@@H]1[C@H](Nc2c(Cl)cnc3[nH]c(-c4cccc(OCCN5CCOCC5)c4)nc23)[C@H]2C=C[C@@H]1C2 [Compound CCXXXVII, (1S,2S,3R,4R)-3-(6-chloro-2-(3-(2-morpholinoethoxy)phenyl)-3H-imidazo[4,5-b]pyridine-7-ylamino)pyridin[2.2.1]hept-5-ene-2-carboxamide] | < 100 | < 100 nM and 100 to 1000 nM
NC(=O)[C@@H]1[C@H](Nc2c(Cl)cnc3[nH]c(-c4ccc(C(=O)N5CCNC(C(=O)O)C5)cc4)nc23)[C@H]2C=C[C@@H]1C2 (stereo partly drawn) [Compound CCXXVI, 4-(4-(7-((1R,2R,3S,4S)-3-carbamoylbicyclo[2.2.1]hept-5-en-2-ylamino)-6-chloro-3H-imidazo[4,5-b]211pyridine-2-yl)benzoyl)piperazine-2-carboxylic acid] | < 100 | < 100 nM
CC(=O)N1CCN(Cc2ccc(-c3nc4c(N[C@H]5[C@@H](C(N)=O)[C@@H]6C=C[C@H]5C6)c(Br)cnc4[nH]3)cc2)CC1 [Compound CLVI, (1S,2S,3R,4R)-3-{2-[4-(4-Acetyl-piperazin-1-ylmethyl)-phenyl]-6-bromo-3H-imidazo[4,5-b]pyridin-7-ylamino}-bicyclo[2.2.1]hept-5-ene-2-carboxylic acid amide] | < 100 | < 100 nM

More lines, now with the values ahead:

IC50 [1] [nM] | IC50 [2] | SMILES
< 100 | < 100 nM | NC(=O)[C@@H]1[C@H](Nc2c(Cl)cnc3[nH]c(-c4ccc(N5CCOCC5)cc4Cl)nc23)[C@H]2C=C[C@@H]1C2 [Compound CXX, (1S,2S,3R,4R)-3-[6-Chloro-2-(2-chloro-4-morpholin-4-yl-phenyl)-3H-imidazo[4,5-b]pyridin-7-ylamino]-bicyclo[2.2.1]hept-5-ene-2-carboxylic acid amide]
100 to 1000 | < 100 nM | NC(=O)[C@@H]1[C@H](Nc2c(Br)cnc3[nH]c(-c4ccnc(N5CCOCC5)c4)nc23)[C@H]2C=C[C@@H]1C2 [Compound CXXXVI, (1S,2S,3R,4R)-3-[6-Bromo-2-(2-morpholin-4-yl-pyridin-4-yl)-3H-imidazo[4,5-b]pyridin-7-ylamino]-bicyclo[2.2.1]hept-5-ene-2-carboxylic acid amide]
< 100 | < 100 nM | COc1cc(C2CCN(C[C@H](C)O)CC2)ccc1-c1nc2c(N[C@H]3[C@@H](C(N)=O)[C@@H]4C=C[C@H]3C4)c(Cl)cnc2[nH]1 [Compound XLV, (1S,2S,3R,4R)-3-(6-Chloro-2-{4-[1-((S)-2-hydroxypropyl)-piperidin-4-yl]-2-methoxyphenyl}-3H-imidazo[4,5-b]pyridine-7-ylamino)-bicyclo[2.2.1]hept-5-ene-2-carboxylic acid amide]
> 10000 | > 10000 nM | NC(=O)[C@@H]1[C@H](Nc2c(Cl)cnc3[nH]c(C4CCCNC4)nc23)[C@H]2C=C[C@@H]1C2 (single isomer, unassigned) [XIII]
100 to 1000 | 1000 to 10000 nM | CC(C)NC(=O)[C@@H]1[C@H](Nc2c(Cl)cnc3[nH]c(-c4sc(N5CCCC5)nc4Cl)nc23)[C@H]2C=C[C@@H]1C2 [Compound CLXV, (1S,2S,3R,4R)-3-[6-Chloro-2-(4-chloro-2-pyrrolidin-1-yl-thiazol-5-yl)-3H-imidazo[4,5-b]pyridin-7-ylamino]-bicyclo[2.2.1]hept-5-ene-2-carboxylic acid isopropylamide]
< 100 | < 100 nM | COC[C@H](O)CN1CCC(n2cc(-c3nc4c(N[C@H]5[C@@H](C(N)=O)[C@@H]6C=C[C@H]5C6)c(Cl)cnc4[nH]3)cn2)CC1 [Compound LX, (1S,2S,3R,4R)-3-(6-Chloro-2-{1-[1-((R)-2-hydroxy-3-methoxy-propyl)-piperidin-4-yl]-1H-pyrazol-4-yl}-3H-imidazo[4,5-b]pyridine-7-ylamino)-bicyclo[2.2.1]hept-5-ene-2-carboxylic acid amide]
< 100 | < 100 nM | COc1cc(CN(C)C)ccc1-c1nc2c(N[C@H]3[C@@H](C(N)=O)[C@@H]4C=C[C@H]3C4)c(Cl)cnc2[nH]1 [Compound XLVI, (1S,2S,3R,4R)-3-[6-Chloro-2-(4-dimethylaminomethyl-2-methoxyphenyl)-3H-imidazo[4,5-b]pyridine-7-ylamino)-bicyclo[2.2.1]hept-5-ene-2-carboxylic acid amide, trifluoroacetic acid salt]
100 to 1000 | < 100 nM | CC(=O)N1CCC(n2cc(-c3nc4c(N[C@H]5[C@@H](C(N)=O)[C@@H]6C=C[C@H]5C6)c(Cl)cnc4[nH]3)cn2)CC1 [Compound LXI, (1S,2S,3R,4R)-3-{2-[1-(1-Acetyl-piperidin-4-yl)-1H-pyrazol-4-yl]-6-chloro-3H-imidazo[4,5-b]pyridine-7-ylamino}-bicyclo[2.2.1]hept-5-ene-2-carboxylic acid amide]
< 100 | 100 to 1000 nM | COc1cc(CN2CCOCC2)ccc1-c1nc2c(N[C@H]3[C@@H](CO)[C@@H]4C=C[C@H]3C4)c(Cl)cnc2[nH]1 [Compound LII, {(diexo)-3-[6-Chloro-2-(2-methoxy-4-morpholin-4-ylmethylphenyl)-3H-imidazo[4,5-b]pyridine-7-ylamino]-bicyclo[2.2.1]hept-5-en-2-yl}-methanol]
< 100 | < 100 nM | CC(=O)N1CCN(Cc2ccc(-c3nc4c(N[C@H]5[C@@H](C(N)=O)[C@@H]6C=C[C@H]5C6)c(Cl)cnc4[nH]3)cc2)CC1 [Compound CLVII, (1S,2S,3R,4R)-3-{2-[4-(4-Acetyl-piperazin-1-ylmethyl)-phenyl]-6-chloro-3H-imidazo[4,5-b]pyridin-7-ylamino}-bicyclo[2.2.1]hept-5-ene-2-carboxylic acid amide]
1000 to 10000 | < 100 nM | NC(=O)[C@@H]1[C@H](Nc2c(Cl)cnc3[nH]c(-c4cccc(-n5cccn5)c4)nc23)[C@H]2C=C[C@@H]1C2 [Compound CXXV, (1S,2S,3R,4R)-3-[6-Chloro-2-(3-pyrazol-1-yl-phenyl)-3H-imidazo[4,5-b]pyridin-7-ylamino]-bicyclo[2.2.1]hept-5-ene-2-carboxylic acid amide]
< 100 | < 100 nM | NC(=O)[C@@H]1[C@H](Nc2c(Br)cnc3[nH]c(-c4ccccc4F)nc23)[C@H]2C=C[C@@H]1C2 [Compound CXXXI, (1S,2S,3R,4R)-3-[6-Bromo-2-(2-fluoro-phenyl)-3H-imidazo[4,5-b]pyridin-7-ylamino]-bicyclo[2.2.1]hept-5-ene-2-carboxylic acid amide]
100 to 1000 | < 100 nM | NC(=O)[C@@H]1[C@H](Nc2c(Cl)cnc3[nH]c(Nc4ccccc4)nc23)[C@H]2C=C[C@@H]1C2 [Compound LXVII, (1S,2S,3R,4R)-3-(6-Chloro-2-phenylamino-3H-imidazo[4,5-b]pyridine-7-ylamino)-bicyclo[2.2.1]hept-5-ene-2-carboxylic acid amide]
